Experimental data published in US9157122B2, “Method of diagnosing cancer and reagents therefor” (Garvan Institute of Medical Research, priority 2004, dated 2015).

How the values were obtained:
Format in all cases: cell-based, human
HCT116 cells [1] = assay: Real-time RT-PCR gene expression in HCT116 cells treated with 5-Aza-2′-deoxycytidine and/or TSA; details: for expression of CpG island-associated genes that are unmethylated and transcriptionally repressed: DDX18, INSIG2, PTPN, RALBB, TSN, FIG. 16g-k; for expression of genes hypermethylated in HCT116 (EN1, SCTR and INHBB): genes linked to 2q14.2, FIG. 16b, c and d
Procedure: RNA was extracted using Trizol reagent (Invitrogen) according to the manufacturer's protocol. cDNA was reverse transcribed from 2 μg of total RNA using SuperScriptTM III RNase H^- Reverse Transcriptase (Invitrogen Life technologies), according to the manufacturer's instructions. The reaction was primed with 200 ng of random hexamers (Roche). The reverse transcription reaction was then diluted 1:20 with sterile H2O before addition to a PCR reaction. […] The primers used for amplification comprise a sequence set forth in any one of SEQ ID Nos 119 to 218. Primers were used in a combination described herein. To control for the amount and integrity of the RNA, the Human 18S ribosomal RNA (rRNA) kit (P/N 4308329) (Applied Biosystems), containing the rRNA forward and reverse primers and rRNA VICTM probe, was used. 5 μl of the reverse transcription was used in a 20 μl reaction in TaqMan Universal PCR Master Mix (P/N 4304437) with 1 μl of the 20× Human 18S rRNA mix. The reactions were performed in triplicate and the standard deviation was calculated using the Comparative method (ABI PRISM 7700 Sequence Detection system User Bulletin #2, […] 4303859). The cycle number corresponding to where the measured fluorescence crosses a threshold is […] to the amount of starting material. The mean expression levels are represented as the ratio between each gene and 18S rRNA expression. The colon cancer cell line HCT116 was cultured in D-MEM/F12 (Gibco/BRL) medium supplemented with MEM sodium pyruvate and L-Glutamine and 10% fetal calf serum at 37° C. with 10% CO2. Cells were split 1:8 every 3-4 days. Cells were split 12 h to 24 h prior to treatment. 5-Aza-2'-deoxycytidine (5-aza-dC)(Sigma) was prepared as a 1 mg/ml stock in sterile water, filter-sterilized and frozen as aliquots. 100 mm tissue culture dishes were seeded with 0.5×10^6 cells and following 24 h incubation the cells were treated with 0.5 μm 5-aza-dC. The cells were treated for 24 hours after which the medium was replaced with fresh medium and the cells cultured for a further 48 h before harvesting. Cells were treated with trichostatin A (TSA) (Sigma) at 25, 50 and 100 nM for 24 h. Alternatively, an identical volume of ethanol was used as a control. For co-treatment of cells with 5-aza-dC and TSA, 5-aza-dC was added initially for 24 h, after which it was removed and TSA was added for a further 24 h. The concentrations and the treatment conditions used were chosen based on preliminary studies showing optimal reactivation of gene expression. Expression levels of the genes DDX18, INSIG2, EN1, MARCO, PTPN4, RALBB, GLI2 and TSN was determined essentially as described above.

HCT116 cells [2] = assay: ChIP assay with anti-dimethyl-histone H3(lys9) antibody in treated HCT116 cells, real-time PCR; details: relative to untreated cells; for methylation of H3-K9 histones associated with the p21 CpG island promoter region: FIG. 17a; for methylation of H3-K9 histones associated with the unmethylated genes (DDX18, INSIG2, PTPN, RALBB): FIG. 17g-k; for binding of methylated K9-H3 histones to DNA methylated genes (EN1, SCTR, INHBB, GLI2, MARCO): FIGS. 17b-f
Procedure: ChIP assays were carried out according to the manufacturer (Upstate Biotechnology) and described in Stirzaker et al., Cancer Res 64: 3871-3877, 2004. Briefly, 1×10^6 HCT116 cells, in a 10 cm dish, were fixed by adding formaldehyde at a final concentration of 1% and incubating for 10 minutes at 37° C. The cells were washed twice with ice cold PBS containing protease inhibitors (1 mM phenylmethylsulfonyl fluoride (PMSF), 1 μg/ml aprotinin and 1 μg/ml pepstatin A), harvested and treated with SDS lysis buffer for 10 min on ice. The resulting lysates were sonicated to shear the DNA to fragment lengths of 200 to 500 basepairs. […] No antibody controls were also included for each ChIP assay and no precipitation was observed. The antibody/protein complexes were collected by salmon sperm DNA/protein A agarose slurry and washed several times following the manufacturer's instructions. The immune complexes were eluted with 1% SDS and 0.1 M NaHCO3 and the crosslinks were reversed by incubation at 65° C. for 4 hours in the presence of 200 mM NaCl. The samples were treated with proteinase K for 1 hour and the DNA was purified by phenol/chloroform extraction, ethanol precipitation and resuspended in 30 μl H2O. The amount of target that was immunoprecipitated, was measured by Real-Time PCR using the ABI Prism 7900HT Sequence Detection System. Amplification primers are set forth SEQ ID NOs: 235 to 256. PCR reactions were set up according to the SDS compendium (ver 2.1) for the 7900HT Applied Biosystems Sequence Detector as described previously (Stirzaker, supra). Either immunoprecipitated DNA, no-antibody control or input chromatin were used in each PCR and the PCRs were set up in triplicate. Standard deviation was calculated using the Comparative method (ABI PRISM 7700 Sequence Detection System User Bulletin #2, […] 4303859). For each sample an average CT value was obtained for immunoprecipitated material and for the input chromatin. The difference in CT values (delta CT) reflects the difference in the amount of material that was immunoprecipitated relative to the amount of input (ABI PRISM 7700 Sequence Detection system User Bulletin #2, […] 4303859). To determine if chromatin modification was associated with the suppression of all the genes across the entire band in cancer, regardless of the DNA methylation status, ChIP (chromatin immunoprecipitation) analysis and real-time PCR was performed.

HCT116 cells [3] = assay: ChIP assay with anti-acetylated histone antibody in treated HCT116 cells, real-time PCR; details: relative to untreated cells, FIG. 18
Procedure: ChIP assays were carried out according to the manufacturer (Upstate Biotechnology) and described in Stirzaker et al., Cancer Res 64: 3871-3877, 2004. Briefly, ˜1×10^6 HCT116 cells, in a 10 cm dish, were fixed by adding formaldehyde at a final concentration of 1% and incubating for 10 minutes at 37° C. The cells were washed twice with ice cold PBS containing protease inhibitors (1 mM phenylmethylsulfonyl fluoride (PMSF), 1 μg/ml aprotinin and 1 μg/ml pepstatin A), harvested and treated with SDS lysis buffer for 10 min on ice. The resulting lysates were sonicated to shear the DNA to fragment lengths of 200 to 500 basepairs. The complexes were immunoprecipitated with an antibody specific for dimethyl-histone H3(lys9), Upstate Biotechnology (#07-212) or acetylated histone. […]
The amount of target that was immunoprecipitated, was measured by Real-Time PCR using the ABI Prism 7900HT Sequence Detection System. […] Standard deviation was calculated using the Comparative method (ABI PRISM 7700 Sequence Detection System User Bulletin #2, 1997 (P/N 4303859). For each sample an average CT value was obtained for immunoprecipitated material and for the input chromatin. The difference in CT values (delta CT) reflects the difference in the amount of material that was immunoprecipitated relative to the amount of input (ABI PRISM 7700 Sequence Detection system User Bulletin #2, 1997 (P/N 4303859).

With `Nc1ncn([C@H]2C[C@H](O)[C@@H](CO)O2)c(=O)n1` [5AzaC, 5-Aza-2′-deoxycytidine] the “expression of CpG island-associated genes that are unmethylated and transcriptionally repressed” value (HCT116 cells [1]) was “some reactivation”, the “expression of genes hypermethylated in HCT116 (EN1, SCTR and INHBB)” value (HCT116 cells [1]) was “small increases of expression” and the “methylation of H3-K9 histones associated with the p21 CpG island promoter region” value (HCT116 cells [2]) was “Demethylation of the H3-K9 histones also occurred”. For the same compound, the “methylation of H3-K9 histones associated with the unmethylated genes (DDX18, INSIG2, PTPN, RALBB)” value (HCT116 cells [2]) was “resulted in demethylation” and the “binding of methylated K9-H3 histones to DNA methylated genes (EN1, SCTR, INHBB, GLI2, MARCO)” value (HCT116 cells [2]) was “binding was reduced”.
`CC(/C=C/C(=O)NO)=C\[C@@H](C)C(=O)c1ccc(N(C)C)cc1` [TSA, trichostatin A] was tested, and the “p21 expression activated (control gene)” value (HCT116 cells [1]; 0.5 μm 5-aza-dC 24 h, TSA 24 h, co-treatment 5-aza-dC 24 h then TSA 24 h, normalised to 18S RNA, FIG. 16a) was “more than 3 fold”, the “expression of CpG island-associated genes that are unmethylated and transcriptionally repressed” value (HCT116 cells [1]) was “some reactivation” and the “expression of genes hypermethylated in HCT116 (EN1, SCTR and INHBB)” value (HCT116 cells [1]) was “small increases of expression”. The “H3-K9 acetylation for genes hypermethylated in HCT116 cells” value (HCT116 cells [3]) was “Increased H3-K9 acetylation”, the “methylation of H3-K9 histones associated with the p21 CpG island promoter region” value (HCT116 cells [2]) was “substantial demethylation” and the “methylation of H3-K9 histones associated with the unmethylated genes (DDX18, INSIG2, PTPN, RALBB)” value (HCT116 cells [2]) was “substantial demethylation”. The “binding of methylated K9-H3 histones to DNA methylated genes (EN1, SCTR, INHBB, GLI2, MARCO)” value (HCT116 cells [2]) was “binding was reduced”.
